One compound from patent publication EP0880540B1, “17-BETA-CYCLOPROPYL(AMINO/OXY) 4-AZA STEROIDS AS ACTIVE INHIBITORS OF TESTOSTERONE 5-ALPHA-REDUCTASE AND C17-20-LYASE” (Aventis Pharmaceuticals Inc., priority 1996, dated 1997) can be followed below.

This assay concerns the target T1, cynomolgus monkey prostatic 5α-reductase (Macaca fascicularis, UniProt Q28892).
T1 construct: microsomal preparations of the 5α-reductase enzyme from laboratory animal prostate tissue; from tissue; host or cells: cynomolgus monkey prostate, microsomes
T1 sequence (Q28892 1-254): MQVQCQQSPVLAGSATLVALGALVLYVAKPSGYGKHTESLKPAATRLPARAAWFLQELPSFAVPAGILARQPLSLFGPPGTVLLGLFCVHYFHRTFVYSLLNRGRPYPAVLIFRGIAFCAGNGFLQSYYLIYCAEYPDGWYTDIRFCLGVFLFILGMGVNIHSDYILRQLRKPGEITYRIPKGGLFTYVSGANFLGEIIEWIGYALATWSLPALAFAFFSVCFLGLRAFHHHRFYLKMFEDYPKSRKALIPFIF
The assay can be described thus: In vitro 5α-reductase assay, prostate microsomes. It is filed as biochemical. As to conditions: mean of duplicates. The method, then:
In vitro 5α-reductase assays: The activity of the present compounds as inhibitors of steroid 5α-reductase was determined using microsomal preparations of the 5α-reductase enzyme from laboratory animal prostate tissue. Specifically, microsomes were isolated from cynomolgus monkey prostate tissue. Protein concentration of the microsomal preparations was determined prior to use of the samples. Individual assays of cynomolgus monkey prostatic 5α-reductase activity contained 0.1 M potassium phosphate-sodium citrate buffer, pH 5.6 1.0% (w/v) bovine serum albumin, […] sodium EDTA, 4 µg of microsomal protein, 1.0 mM NADPH, 5.0 mM glucose-6-phosphate, 1 IU/mL glucose-6-phosphate dehydrogenase, [1,2-^3H]-testosterone (0.15 µCi) plus unlabeled testosterone to yield 0.015 µM (Km = 0.015 µM to 0.091 µM in multiple determinations), and test compound which was dissolved in DMSO then diluted in 0.1 M potassium phosphate-sodium citrate buffer, pH 5.6, to yield a final assay concentration of 0.1% (v/v) DMSO. The same buffer and DMSO without test compound were used in control assays. Background radioactivity was determined from assays containing all components except enzyme. Assays were performed in duplicate. Microsomes, 0.1 M potassium phosphate-sodium citrate buffer, pH 5.6, and test compound were preincubated at 37°C. Aliquots of 180 µL were removed after 0 or 40 minutes of preincubation and added to […] of testosterone substrate suspended in 0.1 M potassium phosphate-sodium citrate buffer, pH 5.6, containing 10% (v/v) DMSO. Remaining enzyme activity was assayed for 10 minutes at 37°C in a Dubnoff shaker incubator.
The reactions were terminated by the addition of 5 mL CHCl3:methanol (2:1) and 0.9 mL water. Carrier steroids were added in the form of 2.5 µg each of testosterone, dihydrotestosterone, and 3,17-androstanediol. Steroid metabolites were then extracted according to the procedure of Moore and Wilson (Methods in Enzymol., O'Malley, B.W. and Hardman, J.G. eds., 36, 1975, pp. 466-474), the organic phase containing the steroids was evaporated using nitrogen gas, the residues were dissolved in 3% (v/v) isopropanol in hexane. The steroids were then separated by normal phase HPLC on a LiCrosorb® DIOL derivatized silica gel column (10 µm; 4 x 250 mm) with a 3% to 7.5% isopropanol in hexane gradient, followed by isocratic conditions of […] isopropanol in hexane. Radioactivity in the steroid peaks was measured using a Packard Radiomatic model HS Flo-One detector. When the compound were tested using the above procedures with cynomolgus monkey 5α-reductase, the following results were obtained: Table 2: […]

As a reminder, the inhibition is how much of the control response was suppressed. As to `CC12CCC3C(CC[C@H]4NC(=O)CCC34C)C1CC[C@@H]2OC1CC1` (stereo partly drawn) [MDL 103,432, 17β-Cyclopropyloxy-4-aza-5α-androstan-3-one], under “preincubation 0 min”, the inhibition at 0.1 µM is 78.7%, 1 µM produced 98.7% inhibition and the inhibition at 10 µM came to 99.4%. Where the note is “preincubation 40 min”, this compound had an inhibition at 0.1 µM of 80%, an inhibition at 1 µM of 99.3% and an inhibition at 10 µM of 99.4%.
